Experimental data as given in patent US20230107642A1 (Erasca, Inc., priority 2020, published 2023).

target: T1, K-Ras G12C (Homo sapiens, UniProt P01116, G12C); experiment: CAF assay (% CAF; method in Example 7, not in this part); type: binding; conditions: 10 uM compound, 1 h incubation
T1 construct: This protein contained 188 amino acids in total, including an N-terminal 6-Histidine tag; made in house; host or cells: E. coli BL21

First: C=CC(=O)N1C[C@H](C)N(c2nc(=O)n3c4c(c(-c5cc(Cl)c(F)cc5F)c(Cl)cc24)SC[C@@H]3CN2C[C@@H]3C[C@H]2CO3)C[C@H]1C [Example 500, (3S)-3-((1S,4S)-2-oxa-5-azabicyclo[2.2.1]heptan-5-ylmethyl)-7-((2S,5R)-4-acryloyl-2,5-dimethylpiperazin-1-yl)-9-chloro-10-(5-chloro-2,4-difluorophenyl)-2H-[1,4]thiazino[2,3,4-ij]quinazolin-5(3H)-one]
Second: C=CC(=O)N1C[C@H](C)N(c2nc(=O)n3c4c(c(-c5ccc(F)cc5F)c(Cl)cc24)SC[C@@H]3CN2C[C@@H]3C[C@H]2CO3)C[C@H]1C [Example 519, (3S)-3-((1S,4S)-2-oxa-5-azabicyclo[2.2.1]heptan-5-ylmethyl)-7-((2S,5R)-4-acryloyl-2,5-dimethylpiperazin-1-yl)-9-chloro-10-(2,4-difluorophenyl)-2H-[1,4]thiazino[2,3,4-ij]quinazolin-5(3H)-one]
The “% CAF @ 10 uM, 1h” value of the first is lower: 50.6% for the first, 61.3% for the second.

First: C=CC(=O)N1C[C@H](C)N(c2nc(=O)n3c4c(c(-c5ccc(F)cc5F)c(Cl)cc24)SC[C@@H]3COCCOC)C[C@H]1C [Example 501, (3S)-7-((2S,5R)-4-acryloyl-2,5-dimethylpiperazin-1-yl)-9-chloro-10-(2,4-difluorophenyl)-3-((2-methoxyethoxy)methyl)-2H-[1,4]thiazino[2,3,4-ij]quinazolin-5(3H)-one]
Second: C=CC(=O)N1C[C@H](C)N(c2nc(=O)n3c4c(c(-c5cc(Cl)c(F)cc5F)c(Cl)cc24)SC[C@@H]3COCCOC)C[C@H]1C [Example 502, (3S)-7-((2S,5R)-4-acryloyl-2,5-dimethylpiperazin-1-yl)-9-chloro-10-(5-chloro-2,4-difluorophenyl)-3-((2-methoxyethoxy)methyl)-2H-[1,4]thiazino[2,3,4-ij]quinazolin-5(3H)-one]
The “% CAF @ 10 uM, 1h” value of the first is higher: 66.8% for the first, 65.1% for the second.

Compared with `C=CC(=O)N1[C@H](C)CN(c2nc(=O)n3c4c(c(-c5ccc(F)cc5F)c(C(F)(F)F)cc24)SC[C@@H](OC)C3)C[C@@H]1C` [Example 503, (3S)-8-((3S,5R)-4-acryloyl-3,5-dimethylpiperazin-1-yl)-11-(2,4-difluorophenyl)-3-methoxy-10-(trifluoromethyl)-3,4-dihydro-2H,6H-[1,4]thiazepino[2,3,4-ij]quinazolin-6-one], `C=CC(=O)N1[C@H](C)CN(c2nc(=O)n3c4c(c(-c5ccc(F)cc5F)c(C(F)(F)F)cc24)SC[C@H](OC)C3)C[C@@H]1C` [Example 524, (3R)-8-((3S,5R)-4-acryloyl-3,5-dimethylpiperazin-1-yl)-11-(2,4-difluorophenyl)-3-methoxy-10-(trifluoromethyl)-3,4-dihydro-2H,6H-[1,4]thiazepino[2,3,4-ij]quinazolin-6-one] is lower in “% CAF @ 10 uM, 1h” value: 96% for the first, 95% for the second.

Going from `C=CC(=O)N1CCN(c2nc(=O)n3c4c(c(-c5ccc(F)cc5F)c(Cl)cc24)SC[C@@H](OC)C3)CC1` [Example 504, (3S)-8-(4-acryloylpiperazin-1-yl)-10-chloro-11-(2,4-difluorophenyl)-3-methoxy-3,4-dihydro-2H,6H-[1,4]thiazepino[2,3,4-ij]quinazolin-6-one] to `C=CC(=O)N1CCN(c2nc(=O)n3c4c(c(-c5ccc(F)cc5F)c(Cl)cc24)SC[C@H](OC)C3)CC1` [Example 525, (3R)-8-(4-acryloylpiperazin-1-yl)-10-chloro-11-(2,4-difluorophenyl)-3-methoxy-3,4-dihydro-2H,6H-[1,4]thiazepino[2,3,4-ij]quinazolin-6-one], the “% CAF @ 10 uM, 1h” value falls from 96% to 86%.

Compared with `C=CC(=O)N1[C@H](C)CN(c2nc(=O)n3c4c(c(-c5ccc(F)cc5F)c(Cl)cc24)SC[C@@H](OC)C3)C[C@@H]1C` [Example 505, (3S)-8-((3S,5R)-4-acryloyl-3,5-dimethylpiperazin-1-yl)-10-chloro-11-(2,4-difluorophenyl)-3-methoxy-3,4-dihydro-2H,6H-[1,4]thiazepino[2,3,4-ij]quinazolin-6-one], `C=CC(=O)N1[C@H](C)CN(c2nc(=O)n3c4c(c(-c5ccc(F)cc5F)c(Cl)cc24)SC[C@H](OC)C3)C[C@@H]1C` [Example 526, (3R)-8-((3S,5R)-4-acryloyl-3,5-dimethylpiperazin-1-yl)-10-chloro-11-(2,4-difluorophenyl)-3-methoxy-3,4-dihydro-2H,6H-[1,4]thiazepino[2,3,4-ij]quinazolin-6-one] is lower in “% CAF @ 10 uM, 1h” value: 95% for the first, 93% for the second.

Going from `C=CC(=O)N1[C@H](C)CN(c2nc(=O)n3c4c(c(-c5cc(F)c(F)cc5F)c(Cl)cc24)SC[C@@H]3COC)C[C@@H]1C` [Example 506, (3S)-7-((3S,5R)-4-acryloyl-3,5-dimethylpiperazin-1-yl)-9-chloro-3-(methoxymethyl)-10-(2,4,5-trif1uorophenyl)-2,3-dihydro-5H-[1,4]thiazino[2,3,4-ij]quinazolin-5-one] to `C=CC(=O)N1[C@H](C)CN(c2nc(=O)n3c4c(c(-c5ccc(F)cc5F)c(C(F)(F)F)cc24)SC[C@@H]3COC)C[C@@H]1C` [Example 513, (3S)-7-((3S,5R)-4-acryloyl-3,5-dimethylpiperazin-1-yl)-10-(2,4-difluorophenyl)-3-(methoxymethyl)-9-(trifluoromethyl)-2H-[1,4]thiazino[2,3,4-ij]quinazolin-5(3H)-one], the “% CAF @ 10 uM, 1h” value rises from 17.5% to 96.2%.

Compared with `C=CC(=O)N1CCN(c2nc(=O)n3c4c(c(-c5ccc(F)cc5F)c(C(F)(F)F)cc24)S[C@H](COC)C3)[C@@H](C)C1` [Example 507, (2S)-7-((S)-4-acryloyl-2-methylpiperazin-1-yl)-10-(2,4-difluorophenyl)-2-(methoxymethyl)-9-(trifluoromethyl)-2,3-dihydro-5H-[1,4]thiazino[2,3,4-ij]quinazolin-5-one], `C=CC(=O)N1CCN(c2nc(=O)n3c4c(c(-c5ccc(F)cc5)c(C(F)(F)F)cc24)SC[C@H](OC)C3)[C@@H](C)C1` [Example 527, (R)-8-((S)-4-acryloyl-2-methylpiperazin-1-yl)-11-(4-fluorophenyl)-3-methoxy-10-(trifluoromethyl)-3,4-dihydro-2H,6H-[1,4]thiazepino[2,3,4-ij]quinazolin-6-one] is higher in “% CAF @ 10 uM, 1h” value: 71% for the first, 97% for the second.

First: C=CC(=O)N1C[C@H](C)N(c2nc(=O)n3c4c(c(-c5ccc(F)cc5)c(C(F)(F)F)cc24)SC[C@@H]3COCCOC)C[C@H]1C [Example 512, (S)-7-((2S,5R)-4-acryloyl-2,5-dimethylpiperazin-1-yl)-10-(4-fluorophenyl)-3-((2-methoxyethoxy)methyl)-9-(trifluoromethyl)-2H-[1,4]thiazino[2,3,4-ij]quinazolin-5(3H)-one]
Second: C=CC(=O)N1CCN(c2nc(=O)n3c4c(c(-c5ccc(F)cc5)c(C(F)(F)F)cc24)SC[C@@H]3COCOC)[C@@H](C)C1 [Example 516, (S)-7-((S)-4-acryloyl-2-methylpiperazin-1-yl)-10-(4-fluorophenyl)-3-((methoxymethoxy)methyl)-9-(trifluoromethyl)-2H-[1,4]thiazino[2,3,4-ij]quinazolin-5(3H)-one]
The “% CAF @ 10 uM, 1h” value of the first is lower: 66.1% for the first, 74.4% for the second.

First: C=CC(=O)N1CCN(c2nc(=O)n3c4c(c(-c5ccc(F)cc5F)c(C(F)(F)F)cc24)SC[C@@H]3COC)CC1 [Example 514, (3S)-7-(4-acryloylpiperazin-1-yl)-10-(2,4-difluorophenyl)-3-(methoxymethyl)-9-(trifluoromethyl)-2H-[1,4]thiazino[2,3,4-ij]quinazolin-5(3H)-one]
Second: C=CC(=O)N1C2CN(c3nc(=O)n4c5c(c(-c6ccc(F)cc6F)c(C(F)(F)F)cc35)SC[C@@H]4COC)CC1CC(F)(F)C2 [Example 523, (3S)-7-(9-acryloyl-7,7-difluoro-3,9-diazabicyclo[3.3.1]nonan-3-yl)-10-(2,4-difluorophenyl)-3-(methoxymethyl)-9-(trifluoromethyl)-2H-[1,4]thiazino[2,3,4-ij]quinazolin-5(3H)-one]
The “% CAF @ 10 uM, 1h” value of the first is higher: 96.1% for the first, 68.9% for the second.

First: C=CC(=O)N1C[C@H](C)N(c2nc(=O)n3c4c(c(-c5ccc(F)cc5)c(Cl)cc24)SC[C@@H]3CN2CCN(CC(F)F)CC2)C[C@H]1C [Example 515, (S)-7-((2S,5R)-4-acryloyl-2,5-dimethylpiperazin-1-yl)-9-chloro-3-((4-(2,2-difluoroethyl)piperazin-1-yl)methyl)-10-(4-fluorophenyl)-2H-[1,4]thiazino[2,3,4-ij]quinazolin-5(3H)-one]
Second: C=CC(=O)N1C[C@H](C)N(c2nc(=O)n3c4c(c(-c5ccc(F)cc5)c(Cl)cc24)SC[C@@H]3CN2CCN(C3CC3)CC2)C[C@H]1C [Example 517, (S)-7-((2S,5R)-4-acryloyl-2,5-dimethylpiperazin-1-yl)-9-chloro-3-((4-cyclopropylpiperazin-1-yl)methyl)-10-(4-fluorophenyl)-2H-[1,4]thiazino[2,3,4-ij]quinazolin-5(3H)-one]
The “% CAF @ 10 uM, 1h” value of the first is lower: 55.1% for the first, 59.5% for the second.

Going from `C=CC(=O)N1CCN(c2nc(=O)n3c4c(c(-c5cc(F)c(F)cc5F)c(Cl)cc24)SC[C@@H]3CN2CCN(C3CC3)CC2)[C@@H](C)C1` [Example 520, (3S)-7-((S)-4-acryloyl-2-methylpiperazin-1-yl)-9-chloro-3-((4-cyclopropylpiperazin-1-yl)methyl)-10-(2,4,5-trifluorophenyl)-2H-[1,4]thiazino[2,3,4-ij]quinazolin-5(3H)-one] to `C=CC(=O)N1C[C@H](C)N(c2nc(=O)n3c4c(c(-c5cc(Cl)c(F)cc5F)c(C(F)(F)F)cc24)SC[C@@H]3CN2CCN(CC(F)F)CC2)C[C@H]1C` [Example 521, (3S)-7-((2S,5R)-4-acryloyl-2,5-dimethylpiperazin-1-yl)-10-(5-chloro-2,4-difluorophenyl)-3-((4-(2,2-difluoroethyl)piperazin-1-yl)methyl)-9-(trifluoromethyl)-2H-[1,4]thiazino[2,3,4-ij]quinazolin-5(3H)-one], the “% CAF @ 10 uM, 1h” value falls from 51.1% to 40.6%.

`C=CC(=O)N1CCN(c2nc(=O)n3c4c(c(-c5cc(F)c(F)cc5F)c(C(F)(F)F)cc24)SC[C@@H]3COCOC)[C@@H](C)C1` [Example 522, (3S)-7-((S)-4-acryloyl-2-methylpiperazin-1-yl)-3-((methoxymethoxy)methyl)-9-(trifluoromethyl)-10-(2,4,5-trifluorophenyl)-2H-[1,4]thiazino[2,3,4-ij]quinazolin-5(3H)-one] was tested, and the “% CAF @ 10 uM, 1h” value was 72.4%.
